Values after ≈ are worked out from the molar mass of the structure shown. Where a SMILES comes first, the peptide text is derived from it.
Legend:
[1] = system: Bacillus velezensis; settings: 20 h
[2] = system: Pseudomonas aeruginosa (ATCC33350-Sero-2); settings: ATCC33350, 20 h
[3] = system: Pseudomonas putida (KT2440); settings: CLSI microdilution, MHB, 37 °C, 20h, OD read-out; at least triplicate
[4] = system: Actinobacillus pleuropneumoniae (4074); settings: 20 h
[5] = system: Burkholderia cenocepacia (J2315); settings: 20 h
[6] = system: Bacillus subtilis (2597); settings: 2597, 20 h
[7] = system: Escherichia coli (JM109); assay: MIC, CLSI microdilution; type: cell-based; settings: MHB, 37 °C, 20h, OD read-out, at least triplicate
Procedure: Assays were performed according to the CLSI microdilution method. Briefly, the bacterial strains were inoculated and allowed to reach an OD600 of 0.08–0.13 prior to dilution to 10^6 CFU/mL in Mueller-Hinton broth (MHB). A bacterial suspension (50 μL) was then added to each well of a 96-well microplate containing serially diluted peptide solutions (50 μL in MHB) and incubated at 37 °C for 20h. A well containing sterilized medium was used as a sterility control and another well containing no added peptide served as a growth control.

[8] = system: Bacillus amyloliquefaciens (LMG22478); settings: LMG22478, 20 h
[9] = system: Burkholderia cenocepacia (LMG18829); settings: LMG18829, 20 h
[10] = system: Pseudomonas fluorescens (MF37); settings: 20 h
[11] = relative to PACAP38; cited from earlier work
[12] = system: Bacillus subtilis (PY79); settings: PY79, 20 h
[13] = system: Staphylococcus aureus (ATCC6538#P); settings: ATCC6538, 20 h
[14] = system: Burkholderia cenocepacia (LMG19240); settings: CLSI microdilution, MHB, 37 °C, 20h, OD read-out; at least triplicate
[15] = system: Burkholderia thailendensis (ATCC700388); settings: CLSI microdilution, MHB, 37 °C, 20h, OD read-out; at least triplicate
[16] = system: DPP-IV; parameters: method as in PMID 18353507; settings: cited from earlier work
[17] = system: Burkholderia cenocepacia (K56-2); settings: 20 h
[18] = system: Serratia marcescens (ATCC14756); settings: ATCC14756, 20 h
[19] = system: Pseudomonas aeruginosa (PA14); settings: PA14, 20 h
[20] = system: Bacillus cereus (ATCC11778); settings: ATCC11778, 20 h
[21] = system: Bacillus circulans (LSPQ3543); settings: 20 h
[22] = system: Escherichia coli (O157 :H7); settings: CLSI microdilution, MHB, 37 °C, 20h, OD read-out; at least triplicate
[23] = system: Staphylococcus aureus (Newman); settings: 20 h
[24] = system: Burkholderia cenocepacia (CEP0511 Gvar3b); settings: CLSI microdilution, MHB, 37 °C, 20h, OD read-out; at least triplicate
[25] = system: Escherichia coli ATCC25922; settings: ATCC25922, 20 h

CC[C@H](C)[C@H](NC(=O)CNC(=O)[C@H](CC(=O)O)NC(=O)[C@H](CO)NC(=O)[C@@H](N)Cc1c[nH]cn1)C(=O)N[C@@H](Cc1ccccc1)C(=O)N[C@H](C(=O)N[C@@H](CC(=O)O)C(=O)N[C@@H](CO)C(=O)N[C@@H](Cc1ccc(O)cc1)C(=O)N[C@@H](CO)C(=O)N[C@@H](CCCNC(=N)N)C(=O)N[C@@H](Cc1ccc(O)cc1)C(=O)N[C@@H](C)C(=O)N[C@@H](CCCCN)C(=O)N[C@@H](CCC(N)=O)C(=O)N[C@@H](CCSC)C(=O)N[C@@H](C)C(=O)N[C@H](C(=O)N[C@@H](C)C(=O)N[C@@H](CCCCN)C(=O)N[C@@H](Cc1ccc(O)cc1)C(=O)N[C@@H](CC(C)C)C(=O)N[C@@H](C)C(=O)N[C@@H](C)C(=O)N[C@H](C(=O)N[C@@H](CC(C)C)C(=O)NCC(=O)N[C@@H](CCCCN)C(=O)N[C@@H](CCCNC(=N)N)C(=O)N[C@@H](Cc1ccc(O)cc1)C(=O)N[C@@H](CCCCN)C(=O)N[C@@H](CCC(N)=O)C(=O)N[C@@H](CCCNC(=N)N)C(=O)N[C@H](C(=O)N[C@@H](CCCCN)C(=O)N[C@@H](CC(N)=O)C(=O)N[C@@H](CCCCN)C(N)=O)C(C)C)C(C)C)C(C)C)[C@@H](C)O [compound 6, [Ala^14,20]PACAP38] (H-HSDGIFTDSYSRYAKQMAVAKYLAAVLGKRYKQRVKNK-NH2)
MIC, Bacillus velezensis [1]: 52 µg/mL (≈ 11.8 µM) | MIC, Pseudomonas aeruginosa (ATCC33350-Sero-2) [2]: >200 µg/mL | MIC, Pseudomonas putida (KT2440) [3]: 113 µg/mL (≈ 25.7 µM) | MIC, Actinobacillus pleuropneumoniae [4]: >200 µg/mL | MIC, Burkholderia cenocepacia (J2315) [5]: 8 µg/mL (≈ 1.82 µM) | MIC, Bacillus subtilis (2597) [6]: 187 µg/mL (≈ 42.6 µM) | MIC, Escherichia coli (JM109) [7]: 37 µg/mL (≈ 8.42 µM) | MIC, Bacillus amyloliquefaciens [8]: 9 µg/mL (≈ 2.05 µM) | MIC, Burkholderia cenocepacia (LMG18829) [9]: >200 µg/mL | MIC, Pseudomonas fluorescens (MF37) [10]: >200 µg/mL | Metabolic stability in human plasma [11]: improved metabolic stability | MIC, Bacillus subtilis (PY79) [12]: 3.5 µg/mL (≈ 0.797 µM) | MIC, Staphylococcus aureus (ATCC6538#P) [13]: >200 µg/mL | MIC, Burkholderia cenocepacia (LMG19240) [14]: >200 µg/mL | MIC, Burkholderia thailendensis (ATCC700388) [15]: >200 µg/mL | Metabolic stability against DPP-IV [16]: improved metabolic stability | MIC, Burkholderia cenocepacia (K56-2) [17]: >200 µg/mL | MIC, Serratia marcescens (ATCC14756) [18]: >200 µg/mL | MIC, Pseudomonas aeruginosa (PA14) [19]: >200 µg/mL | MIC, Bacillus cereus (ATCC11778) [20]: >200 µg/mL | MIC, Bacillus circulans (LSPQ3543) [21]: 94 µg/mL (≈ 21.4 µM) | MIC, Escherichia coli (O157 :H7) [22]: 113 µg/mL (≈ 25.7 µM) | MIC, Staphylococcus aureus (Newman) [23]: >200 µg/mL | MIC, Burkholderia cenocepacia (CEP0511 Gvar3b) [24]: >200 µg/mL | MIC, Escherichia coli ATCC25922 [25]: >200 µg/mL
